In ChEMBL document CHEMBL4483862, “Open-source discovery of chemical leads for next-generation chemoprotective antimalarials” (2018):

System: Plasmodium berghei
Assay: Luciferase/luciferin-expressing antifolate-resistant parasites were used to infect a culture of HepG2 cells that were pre-incubated with compounds. Infected hepatocytes emit light due to the luciferase reaction. Assay results are presented as the percent inhibition of light emission compared to control. […]
Format: functional
Conditions: sporozoite; for IC90: read-out: LUCIFERASE INFECTION ASSAY - IC90

Row | Structure (SMILES) | IC90 [µM] | also measured
1 | COc1cc(C(=O)c2c(-c3ccccc3)cc3ccccn23)cc(OC)c1OC | 0.409 | IC50 (HEPG2TOX_HILL_SLOPE 0.582, HEPG2TOX_R_SQUARED 0.857, PBLUC_HILL_SLOPE 12.9, PBLUC_R_SQUARED 0.72, read-out: LUCIFERASE INFECTION ASSAY - IC50): 0.344 µM
2 | O=C1/C(=C2/NC=C(c3ccc(Cl)cc3)O2)Sc2ccccc21 | > 10 | IC50 (HEPG2TOX_HILL_SLOPE 0.513, HEPG2TOX_R_SQUARED 0.665, PBLUC_HILL_SLOPE 15.6, PBLUC_R_SQUARED 0.39, read-out: LUCIFERASE INFECTION ASSAY - IC50): 9.58 µM
3 | CCOC(=O)c1cnc(SC(C)C(=O)Nc2nc(-c3ccccc3)cs2)nc1N (configuration not stated) | > 10 | IC50 (HEPG2TOX_HILL_SLOPE 0.514, HEPG2TOX_R_SQUARED 0.73, PBLUC_HILL_SLOPE 0.707, PBLUC_R_SQUARED 0.324, read-out: LUCIFERASE INFECTION ASSAY - IC50): 4.44 µM
4 | Cn1ncc2c(NCc3ccc(-c4ccc(Cl)cc4)o3)ncnc21 | 0.56 | IC50 (HEPG2TOX_HILL_SLOPE 0.521, HEPG2TOX_R_SQUARED 0.423, PBLUC_HILL_SLOPE 3.64, PBLUC_R_SQUARED 0.888, read-out: LUCIFERASE INFECTION ASSAY - IC50): 0.306 µM
5 | O=C(O)Cc1c(-c2ccc3c(c2)OCCO3)nc2ccc([N+](=O)[O-])cc2c1-c1ccccc1 | 8.54 | IC50 (HEPG2TOX_HILL_SLOPE 0.567, HEPG2TOX_R_SQUARED 0.724, PBLUC_HILL_SLOPE 1.12, 2.95, PBLUC_R_SQUARED 0.872, 0.627, read-out: LUCIFERASE INFECTION ASSAY - IC50): 3.34 µM
6 | Cc1nn(-c2ccccc2)c(Oc2ccccc2)c1/C=C1\C(=O)Nc2ccccc21 | 1.95 | IC50 (HEPG2TOX_HILL_SLOPE 0.509, HEPG2TOX_R_SQUARED 0.727, PBLUC_HILL_SLOPE 1.23, PBLUC_R_SQUARED 0.54, read-out: LUCIFERASE INFECTION ASSAY - IC50): 0.328 µM
7 | C=C(C)C[n+]1cn(C)c(-c2ccccc2)c1-c1ccccc1 | > 10 | IC50 (HEPG2TOX_HILL_SLOPE 0.508, HEPG2TOX_R_SQUARED 0.671, PBLUC_HILL_SLOPE 5.71, PBLUC_R_SQUARED 0.631, read-out: LUCIFERASE INFECTION ASSAY - IC50): 7.55 µM
8 | O=C(/C=C/c1ccc([N+](=O)[O-])cc1)NCC(=O)N1CCN(S(=O)(=O)c2ccc(Cl)cc2)CC1 | 0.04 | IC50 (HEPG2TOX_HILL_SLOPE 0.532, HEPG2TOX_R_SQUARED 0.824, PBLUC_HILL_SLOPE 10.3, PBLUC_R_SQUARED 0.421, read-out: LUCIFERASE INFECTION ASSAY - IC50): 0.0324 µM
9 | C=C(C)[C@@H]1CC=C(CN2CCC3(CC2)C(=O)N(CCCc2cccnc2)C(=O)N3CC)CC1 | 6.89 | IC50 (HEPG2TOX_HILL_SLOPE 0.525, HEPG2TOX_R_SQUARED 0.846, PBLUC_HILL_SLOPE 1.68, PBLUC_R_SQUARED 0.809, read-out: LUCIFERASE INFECTION ASSAY - IC50): 1.86 µM
10 | COc1ccc(O)c(C(=O)c2cnc3cc4c(cc3c2)OCCO4)c1 | 1.21 | IC50 (HEPG2TOX_HILL_SLOPE 0.562, HEPG2TOX_R_SQUARED 0.791, PBLUC_HILL_SLOPE 0.753, PBLUC_R_SQUARED 0.781, read-out: LUCIFERASE INFECTION ASSAY - IC50): 0.0655 µM
11 | CN1c2ccccc2C(C)(C)C12C=Cc1c(c(Br)cc3oc4c(c13)CCCC4)O2 (configuration not stated) | > 10 | IC50 (HEPG2TOX_HILL_SLOPE 0.555, HEPG2TOX_R_SQUARED 0.409, PBLUC_HILL_SLOPE 0.699, PBLUC_R_SQUARED 0.384, read-out: LUCIFERASE INFECTION ASSAY - IC50): 4.21 µM
12 | O=C(Nc1cccc2c[nH]nc12)c1ccc([N+](=O)[O-])s1 | 7.56 | IC50 (HEPG2TOX_HILL_SLOPE 0.563, HEPG2TOX_R_SQUARED 0.653, PBLUC_HILL_SLOPE 2.36, PBLUC_R_SQUARED 0.303, read-out: LUCIFERASE INFECTION ASSAY - IC50): 2.98 µM
13 | CCn1nnc2cc(C(=O)NC3CCc4nc(-c5ccccc5)ncc4C3)ccc21 (configuration not stated) | > 10 | IC50 (HEPG2TOX_HILL_SLOPE 0.553, HEPG2TOX_R_SQUARED 0.534, PBLUC_HILL_SLOPE 1.69, PBLUC_R_SQUARED 0.311, read-out: LUCIFERASE INFECTION ASSAY - IC50): 4.68 µM
14 | Cc1ccc(S(=O)(=O)Oc2c(C(C)C)cc(Nc3ccccc3)cc2C(C)C)cc1 | > 10 | IC50 (HEPG2TOX_HILL_SLOPE 0.494, HEPG2TOX_R_SQUARED 0.437, PBLUC_HILL_SLOPE 0.599, PBLUC_R_SQUARED 0.52, read-out: LUCIFERASE INFECTION ASSAY - IC50): 2.17 µM
15 | COc1ccc(-c2ccc3ncc(-c4cccc(C(=O)NCCN(C)C)c4)n3n2)cc1OC | 0.309 | IC50 (HEPG2TOX_HILL_SLOPE 0.532, HEPG2TOX_R_SQUARED 0.94, PBLUC_HILL_SLOPE 3.74, PBLUC_R_SQUARED 0.793, read-out: LUCIFERASE INFECTION ASSAY - IC50): 0.172 µM
16 | CC(C)c1ccc(NC(=O)c2csc(C(O)c3ccccc3)n2)cc1 (configuration not stated) | > 10 | IC50 (HEPG2TOX_HILL_SLOPE 0.582, HEPG2TOX_R_SQUARED 0.837, PBLUC_HILL_SLOPE 1.67, PBLUC_R_SQUARED 0.415, read-out: LUCIFERASE INFECTION ASSAY - IC50): 7.47 µM

Row | Structure (SMILES) | IC90 [µM] | also measured
17 | C(=N\c1ccc2ccccc2c1)/Nc1ccc2ccccc2c1 | > 11.1 | IC50 (HEPG2TOX_HILL_SLOPE 0.512, HEPG2TOX_R_SQUARED 0.0455, PBLUC_HILL_SLOPE 17.2, PBLUC_R_SQUARED 0.33, read-out: LUCIFERASE INFECTION ASSAY - IC50): 10.8 µM
18 | CC(C)(C)c1cnc(CSc2nc3ccc(Cl)cc3[nH]2)o1 | > 10 | IC50 (HEPG2TOX_HILL_SLOPE 0.519, HEPG2TOX_R_SQUARED 0.541, PBLUC_HILL_SLOPE 2.57, PBLUC_R_SQUARED 0.344, read-out: LUCIFERASE INFECTION ASSAY - IC50): 5.12 µM
19 | Cc1ccc(S(=O)(=O)Nc2ccccc2-c2nnc(-c3ccc(C(C)(C)C)cc3)o2)cc1 | > 7.37 | IC50 (HEPG2TOX_HILL_SLOPE 0.544, HEPG2TOX_R_SQUARED 0.0439, read-out: LUCIFERASE INFECTION ASSAY - IC50): > 7.37 µM
20 | Cc1cccc(-c2cn3c(-c4ccc(N(C)C)cc4)cnc3cn2)c1C | 1.28 | IC50 (HEPG2TOX_HILL_SLOPE 0.565, HEPG2TOX_R_SQUARED 0.75, PBLUC_HILL_SLOPE 0.899, PBLUC_R_SQUARED 0.883, read-out: LUCIFERASE INFECTION ASSAY - IC50): 0.111 µM
21 | CC1(C)CC(=O)C/C(=N\Nc2nc(C(Cl)(Cl)Cl)nc3ccccc23)C1 | > 10 | IC50 (HEPG2TOX_HILL_SLOPE 0.517, HEPG2TOX_R_SQUARED 0.271, PBLUC_HILL_SLOPE 3.75, PBLUC_R_SQUARED 0.163, read-out: LUCIFERASE INFECTION ASSAY - IC50): 9.3 µM
22 | Oc1ccc(C2=CCN(c3ncnc4ccccc34)CC2)cc1 | 2.89 | IC50 (HEPG2TOX_HILL_SLOPE 0.526, HEPG2TOX_R_SQUARED 0.691, PBLUC_HILL_SLOPE 1.57, PBLUC_R_SQUARED 0.66, read-out: LUCIFERASE INFECTION ASSAY - IC50): 0.716 µM
23 | COc1cc(NC(=O)COC(=O)c2c3c(nc4ccccc24)CCC(C(C)(C)C)C3)c(C)cc1[N+](=O)[O-] (configuration not stated) | > 10 | IC50 (HEPG2TOX_HILL_SLOPE 0.52, HEPG2TOX_R_SQUARED 0.623, PBLUC_HILL_SLOPE 14.9, PBLUC_R_SQUARED 0.282, read-out: LUCIFERASE INFECTION ASSAY - IC50): > 10 µM
24 | CN(CC(=O)Nc1ccccc1N1CCCC1)Cc1ccc2ccccc2c1 | 0.646 | IC50 (HEPG2TOX_HILL_SLOPE 0.547, HEPG2TOX_R_SQUARED 0.872, PBLUC_HILL_SLOPE 2.05, PBLUC_R_SQUARED 0.897, read-out: LUCIFERASE INFECTION ASSAY - IC50): 0.221 µM
25 | COc1ccc(COC(=O)c2cc(C)nc3ccccc23)cc1F | 0.157 | IC50 (HEPG2TOX_HILL_SLOPE 0.536, HEPG2TOX_R_SQUARED 0.687, PBLUC_HILL_SLOPE 9.99, PBLUC_R_SQUARED 0.341, read-out: LUCIFERASE INFECTION ASSAY - IC50): 0.126 µM
26 | O=C1C2=C(Nc3[nH]c(=O)[nH]c(=O)c3C2c2cccs2)c2ccccc21 (configuration not stated) | > 10 | IC50 (HEPG2TOX_HILL_SLOPE 0.543, HEPG2TOX_R_SQUARED 0.515, read-out: LUCIFERASE INFECTION ASSAY - IC50): > 10 µM
27 | CCCn1c(C)cc(C(=O)CN(C)S(=O)(=O)c2ccc(F)cc2)c1C | > 10 | IC50 (HEPG2TOX_HILL_SLOPE 0.529, HEPG2TOX_R_SQUARED 0.126, read-out: LUCIFERASE INFECTION ASSAY - IC50): > 10 µM
28 | Cc1cc(C)n(-c2nc(-c3ccccc3)cc(N(C)CCO)n2)n1 | 3.45 | IC50 (HEPG2TOX_HILL_SLOPE 0.522, HEPG2TOX_R_SQUARED 0.395, PBLUC_HILL_SLOPE 14.2, PBLUC_R_SQUARED 0.716, read-out: LUCIFERASE INFECTION ASSAY - IC50): 2.96 µM
29 | C=CCN(c1ccccc1)S(=O)(=O)c1cccc(C(=O)Nc2ccnn2C(C)C2CC2)c1 (configuration not stated) | > 10 | IC50 (HEPG2TOX_HILL_SLOPE 0.485, HEPG2TOX_R_SQUARED 0.701, PBLUC_HILL_SLOPE 1.26, PBLUC_R_SQUARED 0.254, read-out: LUCIFERASE INFECTION ASSAY - IC50): > 10 µM
30 | CC(=O)Nc1ccc(NC(=O)c2cc(C)n(C3CCCCC3)c2C)cc1 | > 10 | IC50 (HEPG2TOX_HILL_SLOPE 0.564, HEPG2TOX_R_SQUARED 0.119, read-out: LUCIFERASE INFECTION ASSAY - IC50): > 10 µM
31 | FC(F)(F)c1nc(NCCNc2ccccn2)c2ccccc2n1 | 5.48 | IC50 (HEPG2TOX_HILL_SLOPE 0.531, HEPG2TOX_R_SQUARED 0.801, PBLUC_HILL_SLOPE 0.677, PBLUC_R_SQUARED 0.347, read-out: LUCIFERASE INFECTION ASSAY - IC50): 0.214 µM
